Data published in US11739064B2, “HDAC inhibitors and therapeutic methods using the same” (THE BOARD OF TRUSTEES OF THE UNIVERSITY OF ILLINOIS, priority 2015, dated 2023).

Legend:
[1] = tested on: BxPC3; assay: In vitro growth inhibition (GI), MTS cell proliferation assay (Table 5), BxPC3; type: cell-based; conditions: Homo sapiens, BXPC-3, 72 hours post-treatment
[2] = tested on: L3.6pl; assay: In vitro growth inhibition (GI), MTS cell proliferation assay (Table 5), L3.6pl; type: cell-based; conditions: Homo sapiens, 72 hours post-treatment
[3] = target: Human HDAC1 (Homo sapiens, UniProt Q13547); assay: In vitro HDAC inhibition assay, HDAC1; conditions: read-out: HDAC isoform IC50, HDAC1; NI = No inhibition at a concentration of 50 pM (footnote b)
[4] = tested on: PANC1 cells; assay: Scratch-wound cell migration assay; type: cell-based; design: key to Inhibition of cell migration, 24 h / Inhibition of cell migration, 48 h: Level of inhibition (high to low): +++, ++ or +; Level of inhibition (high to low): +++, ++ or +; Level of inhibition (high to low): +++, ++ or +; no inhibition: −
Protocol: FIG. 2 contains photographs of PANC1 cells treated with present compounds 9 and 6 taken 24 and 48 hours (post wounding) after a scratch was made through a confluent layer of cells; and
PANC1 Cell migration and effect on T and NK Cells. The effect of HDAC6 inhibition on cell migration and cellular cytotoxicity was evaluated. […] Thus, these HDAC6-selective inhibitors could function well to block metastasis. However, in contrast to the effect observed on cell migration, none of the compounds tested affected CD8+ T cell or natural killer (NK) cell-mediated cytotoxicity, despite the ability of the compounds to substantially increase the levels of acetyl-tubulin in these cell lines.

[5] = target: T1, HDAC7 (Homo sapiens, UniProt Q8WUI4); assay: HDAC isoform inhibition, HDAC7; type: biochemical
T1 sequence (Q8WUI4 1-952): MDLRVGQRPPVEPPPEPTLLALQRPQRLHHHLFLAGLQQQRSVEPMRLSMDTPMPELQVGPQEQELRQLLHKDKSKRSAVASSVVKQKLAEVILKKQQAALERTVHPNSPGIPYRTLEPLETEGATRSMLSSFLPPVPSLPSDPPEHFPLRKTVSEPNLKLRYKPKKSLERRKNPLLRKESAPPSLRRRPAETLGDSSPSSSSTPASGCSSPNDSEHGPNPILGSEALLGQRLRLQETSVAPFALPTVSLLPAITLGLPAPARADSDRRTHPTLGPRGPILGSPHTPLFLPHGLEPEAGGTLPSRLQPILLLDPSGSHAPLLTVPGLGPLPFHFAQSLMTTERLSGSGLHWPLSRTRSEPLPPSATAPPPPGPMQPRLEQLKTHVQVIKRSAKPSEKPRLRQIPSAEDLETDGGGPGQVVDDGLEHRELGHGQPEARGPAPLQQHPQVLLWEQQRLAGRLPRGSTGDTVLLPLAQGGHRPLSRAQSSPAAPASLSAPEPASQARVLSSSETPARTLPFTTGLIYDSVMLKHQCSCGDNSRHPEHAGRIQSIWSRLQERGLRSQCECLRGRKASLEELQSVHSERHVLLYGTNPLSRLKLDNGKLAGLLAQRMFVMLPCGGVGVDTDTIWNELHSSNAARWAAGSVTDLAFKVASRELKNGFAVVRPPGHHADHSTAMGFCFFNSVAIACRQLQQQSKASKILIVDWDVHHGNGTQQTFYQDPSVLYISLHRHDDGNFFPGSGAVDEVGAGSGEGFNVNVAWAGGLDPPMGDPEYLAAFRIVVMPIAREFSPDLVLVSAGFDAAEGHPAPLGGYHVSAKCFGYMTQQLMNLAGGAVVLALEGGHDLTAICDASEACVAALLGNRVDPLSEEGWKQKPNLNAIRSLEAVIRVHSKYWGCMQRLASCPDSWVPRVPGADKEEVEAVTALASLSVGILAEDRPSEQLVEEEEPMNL

Human HDAC1, sequence (Q13547 whole entry, canonical isoform): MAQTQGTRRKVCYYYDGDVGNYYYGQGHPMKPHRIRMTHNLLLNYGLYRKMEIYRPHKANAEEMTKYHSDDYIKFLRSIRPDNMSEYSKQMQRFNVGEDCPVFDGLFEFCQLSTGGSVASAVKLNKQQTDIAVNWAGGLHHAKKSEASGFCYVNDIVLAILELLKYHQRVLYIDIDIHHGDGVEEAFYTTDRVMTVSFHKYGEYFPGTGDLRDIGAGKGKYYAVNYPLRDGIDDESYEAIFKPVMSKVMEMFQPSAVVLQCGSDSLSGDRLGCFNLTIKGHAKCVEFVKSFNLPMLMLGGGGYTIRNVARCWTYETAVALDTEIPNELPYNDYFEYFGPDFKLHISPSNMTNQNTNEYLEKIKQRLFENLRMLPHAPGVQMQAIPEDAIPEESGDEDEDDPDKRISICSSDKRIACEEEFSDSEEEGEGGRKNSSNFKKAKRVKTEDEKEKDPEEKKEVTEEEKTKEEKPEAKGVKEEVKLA

## CC(C)(C)OC(=O)Nc1ccc(-c2cc(C(=O)NCCc3cc(C(=O)NO)no3)no2)cc1 [Compound 6, (4-{3-[2-(3-Hydroxycarbamoyl-isoxazol-5-yl)-ethylcarbamoyl]-isoxazol-5-yl}-phenyl)-carbamic acid tert-butyl ester]
[1]
  GI50: 29 µM
[2]
  GI50: > 50 µM
[3]
  IC50: 16.9 µM
[4]; PANC1, 24 h post wounding
  Inhibition of cell migration, 24 h: +
[4]; PANC1, 48 h post wounding
  Inhibition of cell migration, 48 h: −
[4]; compared to diluent-treated control cells
  Effect on PANC1 cell migration: partial effect
[5]
  IC50: 105 µM
  Selectivity for HDAC6 (fold) over HDAC7: 17500 fold
